Reference: patent publication US9499488B2, “Vitamin D receptor agonists and uses thereof” (Beth Israel Deaconess Medical Center, Inc., priority 2011, dated 2016)

Experiments:
[1] = target: T1, VDR (GAL4-DBD/VDR-LBD fusion protein in HEK293T cells) (Homo sapiens, UniProt P11473); test: GeneBLAzer cell-based VDR assay (VDR-UAS-bla HEK 293T, beta-lactamase reporter); conditions: for Activity: agonist or antagonist at VDR, compounds of formula (I) tested as mixture of diastereomers; for VDR agonistic activity (degree, in words): high throughput screen of vitamin D receptor activity
T1 construct: the targeting construct (GAL4-DBD/VDR-LBD) fusion protein engineered in a HEK293T cell line containing 7XUAS-bla; host or cells: GeneBLAzer VDR-UAS-bla HEK 293T cells
T1 sequence (P11473 127-423 limits assumed): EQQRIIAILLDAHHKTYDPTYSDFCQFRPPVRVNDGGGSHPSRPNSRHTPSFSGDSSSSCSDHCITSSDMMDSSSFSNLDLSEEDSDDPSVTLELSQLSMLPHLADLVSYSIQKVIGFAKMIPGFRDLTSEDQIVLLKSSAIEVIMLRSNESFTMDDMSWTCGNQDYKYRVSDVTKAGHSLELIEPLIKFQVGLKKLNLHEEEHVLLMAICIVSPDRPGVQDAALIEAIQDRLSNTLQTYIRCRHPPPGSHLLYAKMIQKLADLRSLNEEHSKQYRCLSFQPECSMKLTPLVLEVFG
Text: High throughput assay validation of the top ranked unique molecules from each of three PDB conformations on the basis of docking score (glide score+ionization state penalty). From this priority list 200 of the best ranked molecules, following ADMET evaluation, were purchased and subjected to binding assays. The compounds of formula (I) were obtained and tested as a mixture of diastereomers.
To determine which compounds identified by virtual screens are actually capable of regulating the transcriptional profile of VDR, we performed GeneBLAzer® Cell-Based VDR Assay (kit was bought from Invitrogen and assay performed as per instructions). Upon binding of a VDR agonist to the targeting construct (GAL4-DBD/VDR-LBD) fusion protein engineered in a HEK293T cell line containing 7XUAS-bla, a transcriptional cascade is initiated that produces β-lactamase (BLA). In the presence of the BLA LiveBLAzer™ substrate, cells expressing BLA will fluoresce blue (460 nm), while those not expressing BLA will fluoresce green (530 nm); higher […] ratio indicating the activation of VDR, whereas in presence of calcitriol (potent agonist) diminishing of this ratio indicates an antagonist behavior of the ligand. The agonist and antagonist abilities of CADD-selected compounds were determined in six-point concentration profile and compared with vehicle.
GeneBLAzer® VDR-UAS-bla HEK 293T cells were purchased from Invitrogen (Cat# K1700). The cells were cultured in growth medium in a humidified (37° C./5% CO2) incubator following the manufacture's instruction. Test compounds (ChemBridge, San Diego, Calif.) and Calcitriol (1α,25-Dihydroxyvitamin D3, Sigma) were dissolved in 100% DMSO(Sigma) at 1000-fold stock concentration and stored at −20° C., which were diluted in assay medium immediately prior to use. LiverBLAzer-FRET B/G loading kit was purchased from Invitrogen.
The GeneBLAzer® VDR-UAS-bla HEK 293T cell-based assay was used to screen 200 compounds for activity at the vitamin D receptor. The assay was run in triplicate following the manufacture's instruction. Briefly, 2×10^4 cells in 32 μl assay medium were added to each well of a 384-well black-wall assay plate (Corning Incorporated, Cat#3712). To each well was added 8 al of compound solution diluted in assay medium, the cells were incubated in a humidified (37° C./5% CO2) incubator for 5 hours. The cell-free wells (containing 32 μl assay medium only) and unstimulated cell wells were treated in parallel with the same concentration of DMSO in assay medium, which were used as background controls and blank controls, respectively. Calcitriol was used as a positive control. To each well was added 8 μl of LiverBLAzer-FRET B/G substrate mixture. The plate was covered with plate sealer and incubated at room temperature for 2 hours in the dark. Fluorescence emission was measured on SpectraMax plate reader at 460 nm and 530 nm with excitation set to 409 nm. After subtraction of background, the average value at 460 nm was divided by the average value at 530 nm to obtain the 460/530 ratio.

[2] = Inhibition of hyperparathyroidism: serum PTH in 1α-hydroxylase knock out mice; format: in vivo; conditions: 0.6 μg/kg three times a week; 1α-OH KO mice; serum PTH ELISA
Text: We performed long-term (7 days) in vivo experiments comparing the parathyroid hormone (PTH) levels following administration of compound 10 (aka VDRA) to an equivalent dose of paricalcitol (PC), a VDR agonist used to treat secondary hyperparathyroidism.
For this study, we used 1α-hydroxylase (1α-OH) knock out (KO) mice, which lack 1α-OH, an enzyme that converts 25(OH)VitD3 to the hormonally active form, 1,25-dihydroxyvitamin D3 (1,25(OH)2VitD3). These mice are designed to have a low vitamin D level at baseline and are hypocalcemic.
We administered 0.6 μg/kg of compound 10 or paricalcitol three times a week (Mon, Wed, Fri) for three weeks. Serum PTH level was measured using a PTH (intact, mouse) ELISA immunoassay (Alpco, Salem, Mass.).

[3] = tested on: adult rat cardiomyocytes (ARCMs); test: Phenylephrine-induced hypertrophy in adult rat cardiomyocytes in vitro (ANP level); format: cell-based; conditions: pre-treated 24 hours, then PE (100 μM) for 48 hours
Method: We used adult rat cardiomyocytes (ARCMs) in these studies because heart failure is predominantly a disease of the adult heart. ARCM cultures were prepared from the hearts of female Sprague-Dawley rats by enzymatic dissociation using 0.3% collagenase. Each heart yields about 3-4×10^6 viable ventricular cardiomyocytes. Freshly isolated adult cardiomyocyte cultures contain >90% rod-shaped myocytes and less than 1% of the cells are non-myocytes. The cells were used within 24 hours of plating.
We examined how the response of cardiomyocytes to specific hypertrophic stimulus, phenylephrine (PE) is modulated by pretreatment with compound 10 as compared to known activated vitamin D analog, paricalcitol (PC). In this experiment, ARCM was pre-treated with vehicle, compound 10 (different doses) or paricalcitol ([…]) for 24 hours. The cells were then exposed to PE (100 μM) or vehicle for 48 hours. After exposing the cells to hypertrophic stimulation for 48 hours, they were collected and analyzed for several well-established parameters of cardiac hypertrophy, such as tissue atrial natriuretic peptide (ANP) level.

[4] = Calcemic effects: serum ionized calcium in 1α-hydroxylase knock out mice; format: in vivo; conditions: 1α-OH KO mice; for increase in serum calcium level compared to the vehicle, long term: 0.6 μg/kg for one week (three administrations); for increase in serum calcium level compared to the vehicle, short term: 24 hours after administration, 0.60 and 3.0 μg/kg doses
Method: We performed short-term (24 hours) and long-term (7 days) in vivo experiments comparing the calcemic effect of compound 10 (aka VDRA) to an equivalent dose of calcitriol.
For this study, we used 1α-hydroxylase (1α-OH) knock out (KO) mice, which lack 1α-OH, an enzyme that converts 25(OH)VitD3 to the hormonally active form, 1,25-dihydroxyvitamin D3 (1,25(OH)2VitD3) or calcitriol. These mice are designed to have a low vitamin D level at baseline and are hypocalcemic.
For the short term experiment, we administered 0.6 μg/kg (therapeutic dose) and 3 μg/kg (supratherapeutic dose) of vehicle, calcitriol or compound 10, and then measured serum calcium level 24 hours after administration.
For the long-term experiment, we administered 0.6 μg/kg of vehicle, calcitriol or compound 10 for one week. We administered the drugs on Wednesday, Friday, and Monday, and measured serum calcium level on the following Tuesday.
Serum ionized calcium levels were measured using clinical grade iSTAT system (Abbott laboratories).

[5] = Phenylephrine (PE) induced cardiac hypertrophy in mice; format: in vivo; conditions: PE 30 mg/kg/day via osmotic pump 7 days; compound 60 ng/kg 3×/week intraperitoneally
Method: FIGS. 5A-5C are bar graphs depicting the anti-hypertrophic potential of compound 10 (aka VDRA) in phenylephrine (PE) induced cardiac hypertrophy in mice (see Example 6). […] Mice were infused with PE (30 mg/kg/day) via osmotic pump for 7 days. In FIGS. 5A-5C (i) Con=control group with the same amount of saline infusion by osmotic pump; (ii) Vehicle or VDRA ([…]) were injected 3×/week intraperitoneally; (iii) total volume injected=50 μL/animal/injection; (iv) *=p<0.05 vs Control; (v) **=p<0.05 vs Vehicle; and (vi) N=4.
The anti-hypertrophic potential of compound 10 (aka VDRA) in phenylephrine (PE) induced cardiac hypertrophy in mice was evaluated in vivo. WT mice were infused with phenylephrine (PE) (30 mg/kg/day) via osmotic pump for 7 days. After 7 days, the mice were sacrificed, organ weighed, and hearts were obtained for mRNA processing. Vehicle or compound 10 (60 ng/kg) were injected 3×/week intraperitoneally (total volume injected=50 μL/animal/injection).

| SMILES | Activity [1] | other results |
| --- | --- | --- |
| COc1ccc(C2C(C(=O)OCCOc3ccccc3)=C(C)NC3=C2C(=O)CC(c2ccccc2)C3)cc1O (stereo not drawn) [Compound 3] | Agonist |  |
| CCOC(=O)C1=C(C)NC2=C(C(=O)CC(c3ccc(Cl)cc3)C2)C1c1ccc(F)cc1 (stereo not drawn) [Compound 2] | Agonist |  |
| CCSCCOC(=O)C1=C(C)NC2=C(C(=O)CC(c3ccc(OC)cc3)C2)C1c1ccccc1F (stereo not drawn) [Compound 13] | Agonist |  |
| Cc1ccc(OCC(=O)Nc2ccc(S(=O)(=O)Nc3c(C)cc(C)cc3C)cc2)cc1 [Compound 18] | Agonist | VDR agonistic activity (degree, in words) [1]: modest agonist activity |
| CCOc1cc(C2C(C(=O)OCCSCC)=C(C)NC3=C2C(=O)CC(c2ccc(OC)cc2)C3)ccc1O (stereo not drawn) [Compound 7] | Agonist |  |
| C[C@H](/C=C/[C@H](C)C(C)(C)O)[C@H]1CC[C@H]2/C(=C/C=C3C[C@@H](O)C[C@H](O)C3)CCC[C@]12C [paricalcitol, reference compound] |  | PTH levels [2]: significantly reduced |
| CCOC(=O)C1=C(C)NC2=C(C(=O)CC(c3ccc(OC)cc3)C2)C1c1ccc(O)cc1 (stereo not drawn) [Compound 9] | Antagonist |  |
| CCc1ccc(C2C(C(=O)OCCOc3ccccc3)=C(C)NC3=C2C(=O)CC(c2ccc(OC)cc2)C3)cc1 (stereo not drawn) [Compound 5] | Agonist |  |
| COCCOC(=O)C1=C(C)NC2=C(C(=O)CC(c3ccc(Cl)cc3)C2)C1c1ccc(Br)cc1 (stereo not drawn) [Compound 8] | Agonist |  |
| CCSCCOC(=O)C1=C(C)NC2=C(C(=O)CC(c3ccc(Cl)cc3)C2)C1c1cccc(OC)c1 (stereo not drawn) [Compound 10] | Agonist | anti-hypertrophic effect (ANP level) [3]: significant anti-hypertrophic effect; increase in serum calcium level compared to the vehicle, long term [4]: did not show any increase; increase in serum calcium level compared to the vehicle, short term [4]: did not show significant increase; PTH levels [2]: significantly reduced; PE-induced ANF (atrial natriuretic factor) activation in left ventricular tissue (mRNA) [5]: effectively suppressed; PE-induced heart weight/body weight (HW/BW) ratio [5]: effectively blocked; PE-induced lung weight/BW (LW/BW) ratio [5]: effectively blocked |
| Cc1cccc(OCC(=O)Nc2ccc(S(=O)(=O)Nc3ccc(C)cc3C)cc2)c1 [Compound 23] | Antagonist |  |
| CCSCCOC(=O)C1=C(C)NC2=C(C(=O)CC(c3ccccc3)C2)C1c1ccccc1 (stereo not drawn) [Compound 1] | Agonist | VDR agonistic activity (degree, in words) [1]: highest degree of agonistic activity |
| Cc1cc(C)c(NS(=O)(=O)c2ccc(NC(=O)COc3ccc(Cl)cc3)cc2)c(C)c1 [Compound 19] | Agonist |  |
| CCOC(=O)C1=C(C)NC2=C(C(=O)CC(c3ccc(OC)cc3)C2)C1c1cccc(O)c1 (stereo not drawn) [Compound 4] | Antagonist |  |
| COc1ccc(NS(=O)(=O)c2ccc(NC(=O)COc3ccccc3C)cc2)cc1 [Compound 24] | Antagonist |  |
| CCSCCOC(=O)C1=C(C)NC2=C(C(=O)CC(c3ccc(OC)cc3)C2)C1c1ccccc1OC (stereo not drawn) [Compound 17] | Agonist |  |
| CCSCCOC(=O)C1=C(C)NC2=C(C(=O)CC(c3ccccc3OC)C2)C1c1ccccc1F (stereo not drawn) [Compound 6] | Agonist |  |
| CCc1ccc(OCC(=O)Nc2ccc(S(=O)(=O)Nc3cc(C)cc(C)c3)cc2)cc1 [Compound 21] | Antagonist |  |
| C=C1/C(=C\C=C2/CCC[C@]3(C)[C@@H]([C@H](C)CCCC(C)(C)O)CC[C@@H]23)C[C@@H](O)C[C@@H]1O [calcitriol, 1α,25-Dihydroxyvitamin D3, reference compound] |  | increase in serum calcium level compared to the vehicle, long term [4]: about 45%; increase in serum calcium level compared to the vehicle, short term [4]: did not show significant increase |
| Cc1cc(C)c(NS(=O)(=O)c2ccc(NC(=O)COc3ccc(Cl)cc3Cl)cc2)c(C)c1 [Compound 22] | Antagonist |  |
| CCSCCOC(=O)C1=C(C)NC2=C(C(=O)CC(c3ccc(Cl)cc3)C2)C1c1ccccc1F (stereo not drawn) [Compound 11] | Agonist |  |
| CCSCCOC(=O)C1=C(C)NC2=C(C(=O)CC(c3ccc(Cl)cc3)C2)C1c1ccccc1OC (stereo not drawn) [Compound 15] | Agonist |  |
| CCOCCOC(=O)C1=C(C)NC2=C(C(=O)CC(c3ccc(Cl)cc3)C2)C1c1ccc(F)cc1 (stereo not drawn) [Compound 16] | Agonist |  |
| COc1ccc(C2CC(=O)C3=C(C2)NC(C)=C(C(=O)OCCOc2ccccc2)C3c2ccccc2)cc1 (stereo not drawn) [Compound 12] | Agonist |  |
| Cc1cccc(OCC(=O)Nc2ccc(S(=O)(=O)Nc3c(C)cc(C)cc3C)cc2)c1 [Compound 20] | Agonist |  |
| COCCOC(=O)C1=C(C)NC2=C(C(=O)CC(c3ccc(Cl)cc3)C2)C1c1ccc(C)cc1 (stereo not drawn) [Compound 14] | Agonist |  |
